Laboratory results taken from ChEMBL document CHEMBL4507272 (2021).

Columns and labels:
[1] = target: Serine/threonine-protein kinase TAO3 (Homo sapiens) (UniProt Q9H2K8); details: Compound concentration 1000.0 nM
[2] = target: Interleukin-1 receptor-associated kinase 1 (Homo sapiens) (UniProt P51617); details: Compound concentration 1000.0 nM
[3] = target: Tyrosine-protein kinase JAK2 (Homo sapiens) (UniProt O60674); details: Compound concentration 1000.0 nM
[4] = target: Mitogen-activated protein kinase 10 (Homo sapiens) (UniProt P53779); details: Compound concentration 1000.0 nM
[5] = target: Calcium/calmodulin-dependent protein kinase type II subunit alpha (Homo sapiens) (UniProt Q9UQM7); details: Compound concentration 1000.0 nM
[6] = target: Phosphatidylinositol 5-phosphate 4-kinase type-2 gamma (Homo sapiens) (UniProt Q8TBX8); details: Compound concentration 1000.0 nM
[7] = target: Calcium/calmodulin-dependent protein kinase kinase 1 (Homo sapiens) (UniProt Q8N5S9); details: Compound concentration 1000.0 nM
[8] = target: Death-associated protein kinase 2 (Homo sapiens) (UniProt Q9UIK4); details: Compound concentration 1000.0 nM
Chain of Death-associated protein kinase 2 (Homo sapiens) (Q9UIK4 whole entry, looked up): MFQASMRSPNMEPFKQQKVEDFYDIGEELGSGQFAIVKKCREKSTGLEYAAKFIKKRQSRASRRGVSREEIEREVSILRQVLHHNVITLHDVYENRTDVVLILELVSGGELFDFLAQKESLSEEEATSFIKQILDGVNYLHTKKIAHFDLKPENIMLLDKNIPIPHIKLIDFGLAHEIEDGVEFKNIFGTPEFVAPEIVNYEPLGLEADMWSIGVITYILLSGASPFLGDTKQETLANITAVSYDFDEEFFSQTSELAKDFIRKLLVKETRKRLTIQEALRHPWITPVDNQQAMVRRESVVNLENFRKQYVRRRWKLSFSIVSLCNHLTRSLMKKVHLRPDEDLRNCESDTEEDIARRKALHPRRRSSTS

[9] = target: Histamine H1 receptor (Homo sapiens) (UniProt P35367); details: Compound concentration 10.0 uM
[10] = target: Serine/threonine-protein kinase SBK1 (Homo sapiens) (UniProt Q52WX2); details: Compound concentration 1000.0 nM
Chain of Serine/threonine-protein kinase SBK1 (Homo sapiens) (Q52WX2 whole entry): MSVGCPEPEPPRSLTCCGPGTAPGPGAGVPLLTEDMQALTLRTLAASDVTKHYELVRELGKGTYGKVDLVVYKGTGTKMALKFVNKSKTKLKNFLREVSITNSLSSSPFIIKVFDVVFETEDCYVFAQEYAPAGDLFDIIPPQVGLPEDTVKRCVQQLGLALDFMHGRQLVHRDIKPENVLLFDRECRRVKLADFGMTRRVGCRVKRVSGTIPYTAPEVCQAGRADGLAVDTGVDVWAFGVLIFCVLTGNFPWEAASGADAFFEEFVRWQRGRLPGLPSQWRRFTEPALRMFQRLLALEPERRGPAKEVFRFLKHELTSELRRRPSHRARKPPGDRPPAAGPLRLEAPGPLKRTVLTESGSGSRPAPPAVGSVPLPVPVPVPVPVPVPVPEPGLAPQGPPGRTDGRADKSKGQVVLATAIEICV

[11] = target: Mitogen-activated protein kinase 13 (Homo sapiens) (UniProt O15264); details: Compound concentration 1000.0 nM
[12] = target: Serine/threonine-protein kinase ULK3 (Homo sapiens) (UniProt Q6PHR2); details: Compound concentration 1000.0 nM
Rattus norvegicus = species on record: Rattus norvegicus; details: Compound concentration 10.0 uM
[13] = target: Peripheral plasma membrane protein CASK (Homo sapiens) (UniProt O14936); details: Compound concentration 1000.0 nM
Chain of Peripheral plasma membrane protein CASK (Homo sapiens) (O14936 whole entry): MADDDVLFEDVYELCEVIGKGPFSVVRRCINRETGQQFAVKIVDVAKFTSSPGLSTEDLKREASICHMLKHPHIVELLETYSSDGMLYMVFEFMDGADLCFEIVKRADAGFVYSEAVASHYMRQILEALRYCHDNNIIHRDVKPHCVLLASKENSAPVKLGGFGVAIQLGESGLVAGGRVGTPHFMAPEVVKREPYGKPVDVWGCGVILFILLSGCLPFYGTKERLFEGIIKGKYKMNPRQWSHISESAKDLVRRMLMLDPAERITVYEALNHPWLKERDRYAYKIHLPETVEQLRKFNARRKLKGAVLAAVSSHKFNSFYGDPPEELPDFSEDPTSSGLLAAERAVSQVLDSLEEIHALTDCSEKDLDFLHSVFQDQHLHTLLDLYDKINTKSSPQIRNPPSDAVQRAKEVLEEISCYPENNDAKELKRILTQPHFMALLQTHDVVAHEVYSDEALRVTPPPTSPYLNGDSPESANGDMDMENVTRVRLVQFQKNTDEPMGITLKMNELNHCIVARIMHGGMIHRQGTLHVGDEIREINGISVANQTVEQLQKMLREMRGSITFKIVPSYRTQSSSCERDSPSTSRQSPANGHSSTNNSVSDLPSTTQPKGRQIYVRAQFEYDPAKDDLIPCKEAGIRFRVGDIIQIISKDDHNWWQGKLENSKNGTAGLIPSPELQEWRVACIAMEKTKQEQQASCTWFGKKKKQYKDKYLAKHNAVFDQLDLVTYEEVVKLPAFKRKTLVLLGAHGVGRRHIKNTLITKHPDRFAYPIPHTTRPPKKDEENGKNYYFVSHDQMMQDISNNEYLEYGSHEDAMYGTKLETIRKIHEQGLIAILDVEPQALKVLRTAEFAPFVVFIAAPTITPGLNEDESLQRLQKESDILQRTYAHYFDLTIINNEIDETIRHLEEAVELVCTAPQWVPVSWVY

[14] = target: Dual specificity mitogen-activated protein kinase kinase 6 (Homo sapiens) (UniProt P52564); details: Compound concentration 1000.0 nM
[15] = target: Dual specificity mitogen-activated protein kinase kinase 4 (Homo sapiens) (UniProt P45985); details: Compound concentration 1000.0 nM
Chain of Dual specificity mitogen-activated protein kinase kinase 4 (Homo sapiens) (P45985 whole entry): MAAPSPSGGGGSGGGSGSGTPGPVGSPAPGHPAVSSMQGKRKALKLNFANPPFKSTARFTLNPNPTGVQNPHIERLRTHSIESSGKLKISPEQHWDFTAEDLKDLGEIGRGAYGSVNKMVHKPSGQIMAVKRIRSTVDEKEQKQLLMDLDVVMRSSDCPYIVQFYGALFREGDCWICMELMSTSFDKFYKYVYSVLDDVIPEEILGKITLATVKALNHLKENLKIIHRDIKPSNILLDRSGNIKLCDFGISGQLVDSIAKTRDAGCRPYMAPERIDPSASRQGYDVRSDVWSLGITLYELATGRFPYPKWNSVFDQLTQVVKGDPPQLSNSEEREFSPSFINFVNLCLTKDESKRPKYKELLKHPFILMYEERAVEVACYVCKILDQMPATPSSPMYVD

[16] = target: Serine/threonine-protein kinase TNNI3K (Homo sapiens) (UniProt Q59H18); details: Compound concentration 1000.0 nM
[17] = target: Mitogen-activated protein kinase kinase kinase 19 (Homo sapiens) (UniProt Q56UN5); details: Compound concentration 1000.0 nM
[18] = target: Macrophage colony-stimulating factor 1 receptor (Homo sapiens) (UniProt P07333); details: Compound concentration 1000.0 nM
[19] = target: 5-hydroxytryptamine receptor 2A (Homo sapiens) (UniProt P28223); details: Compound concentration 10.0 uM
[20] = target: Phosphatidylinositol 3-kinase catalytic subunit type 3 (Homo sapiens) (UniProt Q8NEB9); details: Compound concentration 1000.0 nM
[21] = system: Serine/threonine-protein kinase B-raf (Homo sapiens), P15056 [V600E]; details: Compound concentration 1000.0 nM
[22] = target: Histamine H2 receptor (Homo sapiens) (UniProt P25021); details: Compound concentration 10.0 uM
[23] = system: Epidermal growth factor receptor (Homo sapiens), P00533 [L861Q]; details: Compound concentration 1000.0 nM
[24] = target: Cyclin-dependent kinase 8 (Homo sapiens) (UniProt P49336); details: Compound concentration 1000.0 nM
[25] = target: Mitotic checkpoint serine/threonine-protein kinase BUB1 (Homo sapiens) (UniProt O43683); details: Compound concentration 1000.0 nM
Chain of Mitotic checkpoint serine/threonine-protein kinase BUB1 (Homo sapiens) (O43683 whole entry, looked up): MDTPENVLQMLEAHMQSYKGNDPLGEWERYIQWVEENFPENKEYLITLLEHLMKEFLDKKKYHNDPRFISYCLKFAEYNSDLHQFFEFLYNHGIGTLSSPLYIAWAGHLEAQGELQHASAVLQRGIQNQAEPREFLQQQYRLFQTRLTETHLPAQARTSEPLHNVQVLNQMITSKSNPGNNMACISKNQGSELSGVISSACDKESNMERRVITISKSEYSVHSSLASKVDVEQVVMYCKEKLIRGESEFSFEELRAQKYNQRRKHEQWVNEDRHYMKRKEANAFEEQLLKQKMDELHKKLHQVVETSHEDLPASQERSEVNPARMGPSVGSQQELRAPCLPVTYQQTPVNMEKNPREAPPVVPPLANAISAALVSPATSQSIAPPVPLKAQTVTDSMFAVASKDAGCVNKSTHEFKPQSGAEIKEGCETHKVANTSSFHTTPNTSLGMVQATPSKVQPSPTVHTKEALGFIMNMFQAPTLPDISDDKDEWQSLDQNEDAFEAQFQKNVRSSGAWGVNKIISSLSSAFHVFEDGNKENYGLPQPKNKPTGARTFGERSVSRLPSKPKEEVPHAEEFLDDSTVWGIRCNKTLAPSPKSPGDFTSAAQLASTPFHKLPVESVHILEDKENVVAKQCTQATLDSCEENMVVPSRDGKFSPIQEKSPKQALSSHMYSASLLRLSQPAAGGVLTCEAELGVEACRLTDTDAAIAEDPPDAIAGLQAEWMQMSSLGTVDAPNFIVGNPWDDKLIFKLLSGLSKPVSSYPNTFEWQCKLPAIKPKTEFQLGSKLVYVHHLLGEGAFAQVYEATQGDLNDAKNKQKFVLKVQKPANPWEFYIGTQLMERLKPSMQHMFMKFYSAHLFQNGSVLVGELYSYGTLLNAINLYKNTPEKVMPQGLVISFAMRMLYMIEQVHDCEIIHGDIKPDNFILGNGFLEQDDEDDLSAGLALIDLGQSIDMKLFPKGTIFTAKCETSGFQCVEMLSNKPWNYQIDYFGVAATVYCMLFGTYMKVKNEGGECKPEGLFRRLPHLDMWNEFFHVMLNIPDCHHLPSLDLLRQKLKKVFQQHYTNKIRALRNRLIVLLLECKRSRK

[26] = target: Serine/threonine-protein kinase Sgk1 (Homo sapiens) (UniProt O00141); details: Compound concentration 1000.0 nM
[27] = target: Cyclin-dependent kinase 18 (Homo sapiens) (UniProt Q07002); details: Compound concentration 1000.0 nM
[28] = target: Mitogen-activated protein kinase 9 (Homo sapiens) (UniProt P45984); details: Compound concentration 1000.0 nM
[29] = target: Dual specificity protein kinase CLK1 (Homo sapiens) (UniProt P49759); details: Compound concentration 1000.0 nM
[30] = target: Tyrosine-protein kinase FRK (Homo sapiens) (UniProt P42685); details: Compound concentration 1000.0 nM
[31] = target: Death-associated protein kinase 3 (Homo sapiens) (UniProt O43293); details: Compound concentration 1000.0 nM
[32] = target: Dual specificity mitogen-activated protein kinase kinase 7 (Homo sapiens) (UniProt O14733); details: Compound concentration 1000.0 nM
[33] = target: Calcium/calmodulin-dependent protein kinase type 1 (Homo sapiens) (UniProt Q14012); details: Compound concentration 1000.0 nM
[34] = target: Cyclin-dependent kinase 16 (Homo sapiens) (UniProt Q00536); details: Compound concentration 1000.0 nM
[35] = target: Phosphatidylinositol 4-phosphate 3-kinase C2 domain-containing subunit beta (Homo sapiens) (UniProt O00750); details: Compound concentration 1000.0 nM
Chain of Phosphatidylinositol 4-phosphate 3-kinase C2 domain-containing subunit beta (Homo sapiens) (O00750 whole entry, the tested form may be a part): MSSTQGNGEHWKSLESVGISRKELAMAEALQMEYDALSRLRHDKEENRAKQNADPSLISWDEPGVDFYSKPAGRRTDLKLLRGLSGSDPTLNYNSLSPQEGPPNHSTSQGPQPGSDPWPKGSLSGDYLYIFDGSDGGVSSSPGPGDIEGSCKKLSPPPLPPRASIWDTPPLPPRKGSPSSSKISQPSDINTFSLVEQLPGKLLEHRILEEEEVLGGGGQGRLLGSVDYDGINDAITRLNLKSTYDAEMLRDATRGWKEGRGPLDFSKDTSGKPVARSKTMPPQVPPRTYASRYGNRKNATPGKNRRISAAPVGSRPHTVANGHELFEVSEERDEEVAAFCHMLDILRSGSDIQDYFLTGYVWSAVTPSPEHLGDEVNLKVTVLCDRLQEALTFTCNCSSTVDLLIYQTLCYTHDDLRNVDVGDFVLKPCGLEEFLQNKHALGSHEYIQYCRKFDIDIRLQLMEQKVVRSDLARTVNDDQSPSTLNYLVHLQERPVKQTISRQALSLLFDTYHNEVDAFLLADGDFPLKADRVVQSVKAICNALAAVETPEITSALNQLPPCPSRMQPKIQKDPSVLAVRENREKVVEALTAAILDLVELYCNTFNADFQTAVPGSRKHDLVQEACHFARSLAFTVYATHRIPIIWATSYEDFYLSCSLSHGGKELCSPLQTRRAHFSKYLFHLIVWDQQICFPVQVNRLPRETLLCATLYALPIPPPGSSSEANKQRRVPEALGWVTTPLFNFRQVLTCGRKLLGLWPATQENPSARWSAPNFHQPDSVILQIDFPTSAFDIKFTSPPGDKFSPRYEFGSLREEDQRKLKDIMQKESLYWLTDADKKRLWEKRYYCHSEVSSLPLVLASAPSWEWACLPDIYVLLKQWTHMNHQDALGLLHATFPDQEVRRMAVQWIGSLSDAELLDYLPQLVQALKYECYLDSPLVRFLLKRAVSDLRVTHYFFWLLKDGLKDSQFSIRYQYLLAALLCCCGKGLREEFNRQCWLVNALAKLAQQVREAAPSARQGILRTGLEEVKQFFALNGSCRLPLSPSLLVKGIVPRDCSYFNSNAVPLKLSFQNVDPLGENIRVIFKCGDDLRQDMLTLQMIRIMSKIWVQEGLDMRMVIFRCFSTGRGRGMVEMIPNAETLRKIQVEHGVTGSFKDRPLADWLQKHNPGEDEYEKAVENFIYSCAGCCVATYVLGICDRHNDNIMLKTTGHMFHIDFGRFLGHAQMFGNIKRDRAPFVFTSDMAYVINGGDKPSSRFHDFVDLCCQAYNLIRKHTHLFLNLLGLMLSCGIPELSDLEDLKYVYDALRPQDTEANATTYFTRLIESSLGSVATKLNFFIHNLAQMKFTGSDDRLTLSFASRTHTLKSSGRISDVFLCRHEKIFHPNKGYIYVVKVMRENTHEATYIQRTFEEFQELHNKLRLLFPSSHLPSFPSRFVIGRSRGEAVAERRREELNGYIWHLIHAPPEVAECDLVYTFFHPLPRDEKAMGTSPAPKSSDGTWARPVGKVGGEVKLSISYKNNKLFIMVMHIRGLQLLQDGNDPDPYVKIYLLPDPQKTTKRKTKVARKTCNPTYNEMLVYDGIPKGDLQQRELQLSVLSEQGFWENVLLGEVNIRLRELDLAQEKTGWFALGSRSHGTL

[36] = target: 5-hydroxytryptamine receptor 7 (Homo sapiens) (UniProt P34969); details: Compound concentration 10.0 uM
[37] = target: Death-associated protein kinase 1 (Homo sapiens) (UniProt P53355); details: Compound concentration 1000.0 nM
[38] = target: Serine/threonine-protein kinase Nek11 (Homo sapiens) (UniProt Q8NG66); details: Compound concentration 1000.0 nM
[39] = target: Cyclin-dependent kinase 14 (Homo sapiens) (UniProt O94921); details: Compound concentration 1000.0 nM
[40] = target: Insulin receptor (Homo sapiens) (UniProt P06213); details: Compound concentration 1000.0 nM
[41] = target: Beta-2 adrenergic receptor (Homo sapiens) (UniProt P07550); details: Compound concentration 10.0 uM
[42] = target: Alpha-2B adrenergic receptor (Homo sapiens) (UniProt P18089); details: Compound concentration 10.0 uM
[43] = target: Serine/threonine-protein kinase N1 (Homo sapiens) (UniProt Q16512); details: Compound concentration 1000.0 nM
[44] = target: Mitogen-activated protein kinase kinase kinase 11 (Homo sapiens) (UniProt Q16584); details: Compound concentration 1000.0 nM
[45] = target: Tyrosine-protein kinase ABL1 (Homo sapiens) (UniProt P00519); details: Compound concentration 1000.0 nM

CC(=O)C1=C(C)N(c2cccc(C(F)(F)F)c2)C(=O)N[C@@H]1c1ccc(C#N)nc1 [BAY-678]
inactive: residual activity [1] 73% | residual activity [2] 100% | residual activity [3] 87.1% | residual activity [4] 100% | residual activity [5] 92.5% | residual activity [6] 80.7% | residual activity [7] 100% | residual activity [8] 79.2% | inhibition [9] 34.1% | residual activity [10] 100% | residual activity [11] 74.6% | residual activity [12] 100% | inhibition (Rattus norvegicus) 20% | residual activity [13] 100% | residual activity [14] 94.6% | residual activity [15] 98.1% | residual activity [16] 99.7% | residual activity [17] 93% | residual activity [18] 100% | inhibition [19] -0.427% | residual activity [20] 100% | residual activity [21] 100% | inhibition [22] 14.5% | residual activity [23] 100% | residual activity [24] 65.3% | residual activity [25] 100% | residual activity [26] 100% | residual activity [27] 85.1% | residual activity [28] 100% | residual activity [29] 100% | residual activity [30] 100% | residual activity [31] 83.8% | residual activity [32] 100% | residual activity [33] 86.7% | residual activity [34] 100% | residual activity [35] 100% | inhibition [36] 3.93% | residual activity [37] 93.8% | residual activity [38] 100% | residual activity [39] 91.7% | residual activity [40] 89.3% | inhibition [41] 24.3% | inhibition [42] -1.73% | residual activity [43] 71.1% | residual activity [44] 100% | residual activity [45] 96.5%
